# Reference: patent publication US10301624B2, “Targeting human satellite II (HSATII)” (The General Hospital Corporation, priority 2014, dated 2019)
# How the values were obtained:
# Format in all cases: cell-based, human
# HSATII-chr10 locus = assay: qPCR analysis on HSATII-chr10 locus after DNase I or RNase A treatment of COLO205 extracts; details: COLO205 cells, ddC 100 μM for two weeks vs DMSO
# Excerpt: FIGS. 3A-C. HSATII RNA-to-DNA conversion occurs through a reverse transcription mechanism. (A) qPCR analysis on HSATII-chr10 locus following DNAse I or RNase A treatment and reverse transcription of extracts obtained from COLO205 cells treated with DMSO or 2′, 3′-dideoxycytidine (ddC). (B) RIP lysates prepared from SW620 2D cultures or xenografts were immunoprecipitated with hTERT or IgG antibody, reverse transcribed and validated by qPCR for HSATII and TERC RNA enrichment. (C) qPCR analysis on HSATII-chr10 locus in COLO205 extracts 72 h after non-targeting (siNT) or TERT-targeting (siTERT) siRNA transfection. For all charts, values represent average of at least three independent experiments ±SEM. *P<0.05 (Student's t test).
# All colon cancer cell lines were cultured in RPMI-1640+10% FBS+1% Pen/Strep (Gibco/Life Technologies). DMEM with the same supplements was used for 293T cells. For drug treatment, cells were cultured in presence of either DMSO or 100 μM 2′, 3′-dideoxycytidine (ddC, Sigma) for two weeks. […]
# RNA was reverse transcribed using a SuperScript III First-Strand Synthesis kit (Invitrogen/Life Technologies) and cDNA was analyzed by qPCR using either Power SYBR-Green PCR Maser Mix or TaqMan Universal Master Mix on an ABI/PRISM 7500 platform (all reagents were from Applied Biosystems/Life Technologies). […]
# COLO205 cells = assay: Proliferation assay (CellTiter-Glo), COLO205
# Description: FIG. 8. Proliferation assay of DMSO- or ddC-treated COLO205 (top) and HCT116 (bottom) cells. Cells were seeded at a density of 5×10^2 cells/well in a 96-well plate and quantified daily using CellTiter-Glo luminescent cell viability assay.
# (§1) For proliferation assays, cells were seeded at a density of 5×10^2 cells/well in a 96-well plate (Corning) in presence of DMSO/ddC (100 μM) or one day after transfection with control/HSATII antisense oligonucleotides. Daily quantification was performed using CellTiter-Glo luminescent cell viability assay (Promega) with a SpectraMax M5 microplate reader (Molecular Devices).
# 50 nM ON-TARGETplus Non-targeting pool siRNA (Thermo Scientific) and Mission Pre-designed TERT siRNAs (Sigma Aldrich) or 500 nM Negative Control and HSATII LNA antisense oligonucleotides (Exiqon) were electroporated into COLO205 cells according to the Neon Transfection System (Invitrogen/Life Technology) instructions using the following conditions: 1600V; pulse width 10; 3 pulses. 500 nM Negative Control/HSATII LNA antisense oligonucleotides were transfected in HCT116 and SW620 cells using Lipofectamine 2000 (Invitrogen/Life Technologies) according to the manufacturer's instructions.
# HCT116 cells = assay: Proliferation assay (CellTiter-Glo), HCT116; details: cells without endogenous HSATII expression, adherent growth, ddC 100 μM vs DMSO
# Description: as §1, with “FIG. 8. Proliferation assay of DMSO- or ddC-treated COLO205 (top) and HCT116 (bottom) cells. Cells were seeded at a density of 5×10^2 cells/well in a 96-well plate and quantified daily using CellTiter-Glo luminescent cell viability assay. For” for “For”, “control/[…]” for “control/HSATII”
# DLD1 = assay: Cell viability in 3D non-adherent and 2D adherent culture, DLD1
# Description: (§2) FIGS. 14A-D. Effect of Locked Nucleic Acids targeting HSATII on TP53 mutant Colorectal Cancer cell lines. […] Error bars represent standard deviation. P-value was calculated using student's two tailed t-test. *represents P<0.05.
# (§3) Cells were transfected with LNAs either targeting HSATII or with non-specific control Locked Nucleic Acids at 500 nM concentrations using Lipofectamine 2000 according to manufacturer recommended conditions. Cells were trypsinized 24 hours after transfection and seeded at concentration of 1000 cells per well in 96 well plates either in 2 dimensional or 3 dimensional culture conditions. For 2D conditions, the cells were transferred to cell culture treated 96 well plates and grown in RPMI+10% FBS. For 3D conditions, cells were grown in (RPMI+10% FBS+) in ultra-low attachment 96 well plates.
# HCT116 = assay: Cell growth in 3D and 2D culture, HCT116 (with or without shRNA TP53 knockdown); details: for susceptibility to ddC: HCT116 with shRNA TP53 knockdown
# Description: (§4) FIGS. 15A-D. Effect of Locked Nucleic Acids targeting HSATII on TP53 wild type Colorectal Cancer cell lines. […] Error bars represent standard deviation. P-value was calculated using student's two tailed t-test.
# FIGS. 19A-F. HCT116 cells are resistant to HSATII targeting and Reverse Transcriptase inhibition. […] Error bars represent standard deviation. P-value was calculated using student's two tailed t-test.
# as §3
# (§5) Stable cell lines carrying either one of two shRNAs targeting TP53, or a non-target shRNA using lentiviral infection, were generated.
# HCT8 = assay: Cell growth in 3D and 2D culture, HCT8 (with or without shRNA TP53 knockdown)
# Description: as §4
# FIGS. 18A-F. TP53 knockdown sensitizes HCT8 cells to HSATII targeted Locked Nucleic Acids and Reverse Transcriptase inhibition. HCT8 colorectal cancer cells are resistant to the reverse transcriptase inhibitor ddC under 3D (A) and 2D (D) growth conditions. shRNA mediated knockdown of TP53 sensitizes the cells to reverse transcriptase inhibition under 3D (B-C), but not 2D (E-F) growth conditions. TP53 knockdown sensitizes HCT8 cells to HSATII targeted Locked Nucleic Acids under 3D (B-C), but not 2D (E-F) growth conditions. Error bars represent standard deviation. P-value was calculated using student's two tailed t-test. *represents P<0.05, **represents P<0.01.
# as §3, §5
# SW620 = assay: Cell viability in 3D non-adherent and 2D adherent culture, SW620; details: SW620, non-adherent conditions, Nec-1 10 μM
# Description: as §2, §3
compound,measurement,setting,value
"Nc1ccn([C@H]2CC[C@@H](CO)O2)c(=O)n1 [ddC, 2′, 3′-dideoxycytidine]",HSATII RNA species,HSATII-chr10 locus,increasing
same,levels of endogenous HSATII rdDNA,HSATII-chr10 locus,reduced
same,cell proliferation,"COLO205 cells; COLO205, ddC 100 μM vs DMSO",suppressed
same,cell proliferation,HCT116 cells,no effect
same,growth inhibition,"DLD1; DLD1, 3 dimensional culture, ddC 5 μM",significant growth inhibition
same,sensitivity to ddC,"HCT116; HCT116, 2D growth conditions",resistant
same,sensitivity to ddC,"HCT116; HCT116, 3D growth conditions",resistant
same,susceptibility to ddC,HCT116; 2D culture,resistance
same,susceptibility to ddC,HCT116; 3D culture,resistance
same,sensitivity to ddC,"HCT8; HCT8, 2D growth conditions",resistant
same,sensitivity to ddC,"HCT8; HCT8, 3D growth conditions",resistant
same,growth inhibition,"HCT8; HCT8 with shRNA TP53 knockdown, 3D culture, ddC",significant growth inhibition
"SEQ ID NO:24: Locked nucleic acids (LNA) probes commercially purchased from Exiqon (GATTCCATTCGATGAT) specifically targeting HSATII (LNA-modified, pattern not given here)",cell proliferation,"COLO205 cells; COLO205, 500 nM LNA antisense oligonucleotide vs negative control, five days",affected
"CN1C(=O)C(Cc2c[nH]c3ccccc23)NC1=S (stereo not drawn) [Nec-1, Necrostatin-1]",rescue of HSATII LNA-induced growth inhibition,"DLD1; DLD1, non-adherent conditions, Nec-1 10 μM",rescued
same,rescue of HSATII LNA-induced growth inhibition,SW620,rescued
